# Read-outs that look alike come from different tables or passages of the source. Numbered stars: 1 amine (or outer) side, 2 acyl side, 3 side chain; on linkers, the order of the positions; unused ones are H or OH. Square brackets hold non-standard residues; d marks the D form. Side chains are listed from the residue outwards. Peptide text beside a SMILES is read from it. * marks the point of attachment. γGlu = O=C(O)[C@H](CCC(=O)[*:2])N[*:1]; Stearoyl = CCCCCCCCCCCCCCCCCC(=O)*; AEEA = NCCOCCOCC(=O)O; Aib = CC(C)(N)C(=O)O
# What was measured:
# Type in all cases: cell-based
# human GLP-1 R = target: T1, human GLP-1 R (Homo sapiens, UniProt P43220); experiment: cAMP induction in HEK293 cells expressing human GLP-1 R (AlphaScreen cAMP kit); conditions: average EC50, cAMP, HEK293 cells expressing human GLP-1 R, read-out: GLP1 R (EC50 in nM)
# T1 construct: expressed in transfected cells
# Protocol: (§1) Briefly, HEK293 cells expressing the human GIP R, GLP-1 R or GCG R (stable cell lines generated through transfection of the cDNA for human GIP R, GLP-1 R or GCG R and selection of stable clones) were seeded at 30,000 cells/well in 96-well microtiter plates coated with 0.01% poly-L-lysine, and grown for 1 day in culture in 200 μl growth medium (DMEM, 10% FCS, Penicillin (100 IU/ml), Streptomycin (100 μg/ml)). On the day of analysis, growth medium was removed and the cells were washed once with 150 μl Tyrode's buffer (Tyrode's Salts (9.6 g/l), 10 mM HEPES, pH 7.4). […] The Assay buffer was removed and cells are lysed in 80 μl Lysis buffer (0.1% w/v BSA, 5 mM HEPES, 0.3% v/v Tween-20) per well. From each well 10 μl of lysed cells were transferred to a 384-well plate and mixed with 15 μl bead-mix (1 Unit/15 μl anti-cAMP Acceptor Beads, 1 Unit/15 μl Donor Beads, and 1 Unit/15 μl Biotinylated cAMP in Assay Buffer). The plates were mixed and incubated in the dark for an hour at room temperature before measuring using an Envision™ plate reader (Perkin-Elmer).
# (§2) The resulting cAMP curves were plotted as absolute cAMP concentrations (nM) over log (test compound concentration) and analyzed using the curve fitting program XLfit.
# (§3) Parameters calculated to describe both the potency as well as the agonistic activity of each test compound on the receptors were:
# (§4) EC50, a concentration resulting in a half-maximal elevation of cAMP levels, reflecting the potency of the test compound.
# human GIP R = target: T2, human GIP R (Homo sapiens, UniProt P48546); experiment: cAMP induction in HEK293 cells expressing human GIP R (AlphaScreen cAMP kit)
# T2 construct: expressed in transfected cells
# T2 sequence (P48546 22-466): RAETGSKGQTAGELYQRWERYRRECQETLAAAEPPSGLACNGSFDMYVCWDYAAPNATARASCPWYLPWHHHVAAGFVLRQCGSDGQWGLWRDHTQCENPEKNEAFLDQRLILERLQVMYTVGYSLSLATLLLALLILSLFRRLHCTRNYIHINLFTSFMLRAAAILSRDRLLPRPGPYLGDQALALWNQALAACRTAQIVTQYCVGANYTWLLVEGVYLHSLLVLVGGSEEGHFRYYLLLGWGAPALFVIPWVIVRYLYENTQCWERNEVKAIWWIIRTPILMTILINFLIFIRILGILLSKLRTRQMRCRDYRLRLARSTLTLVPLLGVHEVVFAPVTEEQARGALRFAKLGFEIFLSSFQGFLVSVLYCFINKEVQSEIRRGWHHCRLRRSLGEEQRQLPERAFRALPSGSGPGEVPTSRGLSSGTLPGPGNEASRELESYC
# human GCG R = target: T3, human GCG R (Homo sapiens, UniProt P47871); experiment: cAMP induction in HEK293 cells expressing human GCG R (AlphaScreen cAMP kit)
# T3 construct: expressed in transfected cells
# Protocol: as §1, §2, §3, §4
# [1] = Table 2b (most comprehensive data)
# [2] = GIP R (EC50 in nM), Table 2, average EC50, cAMP
# [3] = GIP R (EC50 in nM), Table 2b (most comprehensive data), average EC50, cAMP
# T1 sequence (P43220 24-463): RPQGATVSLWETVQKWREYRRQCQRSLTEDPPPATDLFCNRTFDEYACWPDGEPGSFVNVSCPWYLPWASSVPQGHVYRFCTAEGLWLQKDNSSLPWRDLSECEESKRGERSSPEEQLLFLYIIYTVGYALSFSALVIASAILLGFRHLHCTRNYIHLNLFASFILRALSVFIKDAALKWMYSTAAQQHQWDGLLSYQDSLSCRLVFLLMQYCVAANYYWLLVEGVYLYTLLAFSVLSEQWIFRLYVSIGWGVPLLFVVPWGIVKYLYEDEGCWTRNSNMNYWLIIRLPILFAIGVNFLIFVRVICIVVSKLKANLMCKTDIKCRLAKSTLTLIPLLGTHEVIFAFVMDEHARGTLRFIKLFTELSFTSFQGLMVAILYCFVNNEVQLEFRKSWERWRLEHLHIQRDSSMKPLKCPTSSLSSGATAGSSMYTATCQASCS
# T3 sequence (P47871 26-477): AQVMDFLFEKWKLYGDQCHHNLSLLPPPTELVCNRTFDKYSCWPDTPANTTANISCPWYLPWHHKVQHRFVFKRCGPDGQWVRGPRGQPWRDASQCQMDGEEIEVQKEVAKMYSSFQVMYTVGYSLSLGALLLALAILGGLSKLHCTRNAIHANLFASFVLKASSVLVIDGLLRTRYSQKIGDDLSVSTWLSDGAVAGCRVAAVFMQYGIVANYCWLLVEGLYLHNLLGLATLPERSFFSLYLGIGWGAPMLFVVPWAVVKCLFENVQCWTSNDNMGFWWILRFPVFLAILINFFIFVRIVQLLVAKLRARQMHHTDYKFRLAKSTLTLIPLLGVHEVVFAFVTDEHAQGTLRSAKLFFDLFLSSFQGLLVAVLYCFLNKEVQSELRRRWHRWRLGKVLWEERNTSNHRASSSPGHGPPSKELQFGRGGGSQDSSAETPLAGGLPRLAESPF
smiles,measurement,setting,value
CC[C@H](C)[C@H](NC(=O)[C@H](CO)NC(=O)[C@H](Cc1ccc(O)cc1)NC(=O)[C@H](CC(=O)O)NC(=O)[C@H](CO)NC(=O)[C@@H](NC(=O)[C@H](Cc1ccccc1)NC(=O)[C@@H](NC(=O)CNC(=O)[C@H](CCC(N)=O)NC(=O)C(C)(C)NC(=O)[C@@H](N)Cc1ccc(O)cc1)[C@@H](C)O)[C@@H](C)O)C(=O)N[C@@H](Cc1ccc(O)cc1)C(=O)N[C@@H](CC(C)C)C(=O)N[C@@H](CC(=O)O)C(=O)N[C@@H](CCC(=O)O)C(=O)N[C@@H](CCCCN)C(=O)N[C@@H](C)C(=O)N[C@@H](C)C(=O)N[C@@H](CCCCN)C(=O)N[C@@H](CC(=O)O)C(=O)N[C@@H](Cc1ccccc1)C(=O)N[C@H](C(=O)N[C@@H](CCC(=O)O)C(=O)N[C@@H](Cc1c[nH]c2ccccc12)C(=O)N[C@@H](CC(C)C)C(=O)N[C@@H](CC(C)C)C(=O)N[C@@H](CO)C(=O)N[C@@H](C)C(N)=O)C(C)C [Compound 17] (HELM PEPTIDE1{Y.[Aib].Q.G.T.F.T.S.D.Y.S.I.Y.L.D.E.K.A.A.K.D.F.V.E.W.L.L.S.A.[am]}$$$$V2.0),EC50,human GLP-1 R; Table 2,0.011 nM
same,EC50,human GLP-1 R; [1],0.16 nM
same,EC50,human GIP R; [2],0.091 nM
same,EC50,human GIP R; [3],0.013 nM
same,EC50,human GCG R,0.16 nM
CC(C)C[C@H](NC(=O)[C@H](C)NC(=O)[C@H](CCCCN)NC(=O)[C@H](CO)NC(=O)[C@H](Cc1ccc(O)cc1)NC(=O)[C@H](CC(=O)O)NC(=O)[C@H](CO)NC(=O)[C@@H](NC(=O)[C@H](Cc1ccccc1)NC(=O)[C@@H](NC(=O)CNC(=O)[C@H](CCC(N)=O)NC(=O)C(C)(C)NC(=O)[C@@H](N)Cc1ccc(O)cc1)[C@@H](C)O)[C@@H](C)O)C(=O)N[C@@H](CC(=O)O)C(=O)N[C@@H](CCC(=O)O)C(=O)N[C@@H](CCCCN)C(=O)N[C@@H](C)C(=O)N[C@@H](C)C(=O)N[C@@H](CCCCN)C(=O)N[C@@H](CCC(=O)O)C(=O)N[C@@H](Cc1ccccc1)C(=O)N[C@H](C(=O)N[C@@H](CCC(=O)O)C(=O)N[C@@H](Cc1c[nH]c2ccccc12)C(=O)N[C@@H](CC(C)C)C(=O)N[C@@H](CC(C)C)C(=O)N[C@@H](CO)C(=O)N[C@@H](C)C(N)=O)C(C)C [Compound 21] (HELM PEPTIDE1{Y.[Aib].Q.G.T.F.T.S.D.Y.S.K.A.L.D.E.K.A.A.K.E.F.V.E.W.L.L.S.A.[am]}$$$$V2.0),EC50,human GLP-1 R; Table 2,0.014 nM
same,EC50,human GLP-1 R; [1],0.1 nM
same,EC50,human GIP R; [2],0.18 nM
same,EC50,human GIP R; [3],0.015 nM
same,EC50,human GCG R,0.1 nM
CC[C@H](C)[C@H](NC(=O)[C@H](CO)NC(=O)[C@H](Cc1ccc(O)cc1)NC(=O)[C@H](CC(=O)O)NC(=O)[C@H](CO)NC(=O)[C@@H](NC(=O)[C@H](Cc1ccccc1)NC(=O)[C@@H](NC(=O)CNC(=O)[C@H](CCC(N)=O)NC(=O)C(C)(C)NC(=O)[C@@H](N)Cc1ccc(O)cc1)[C@@H](C)O)[C@@H](C)O)C(=O)N[C@@H](Cc1ccc(O)cc1)C(=O)N[C@@H](CC(C)C)C(=O)N[C@@H](CC(=O)O)C(=O)N[C@@H](CO)C(=O)N[C@@H](CCCCN)C(=O)N[C@@H](C)C(=O)N[C@@H](C)C(=O)N[C@@H](Cc1c[nH]cn1)C(=O)N[C@@H](CC(=O)O)C(=O)N[C@@H](Cc1ccccc1)C(=O)N[C@H](C(=O)N[C@@H](CC(N)=O)C(=O)N[C@@H](Cc1c[nH]c2ccccc12)C(=O)N[C@@H](CC(C)C)C(=O)N[C@@H](CC(C)C)C(=O)N[C@@H](CO)C(=O)N[C@@H](C)C(N)=O)C(C)C [Compound 11] (HELM PEPTIDE1{Y.[Aib].Q.G.T.F.T.S.D.Y.S.I.Y.L.D.S.K.A.A.H.D.F.V.N.W.L.L.S.A.[am]}$$$$V2.0),EC50,human GLP-1 R; Table 2,0.02 nM
same,EC50,human GLP-1 R; [1],0.11 nM
same,EC50,human GIP R; [2],0.28 nM
same,EC50,human GCG R,0.11 nM
CC(C)C[C@H](NC(=O)[C@H](CC(C)C)NC(=O)[C@H](Cc1c[nH]c2ccccc12)NC(=O)[C@H](CCC(=O)O)NC(=O)[C@@H](NC(=O)[C@H](Cc1ccccc1)NC(=O)[C@H](CC(=O)O)NC(=O)[C@H](Cc1c[nH]cn1)NC(=O)[C@H](C)NC(=O)[C@H](C)NC(=O)[C@H](CCCCN)NC(=O)[C@H](CO)NC(=O)[C@H](CC(=O)O)NC(=O)[C@H](CC(C)C)NC(=O)[C@H](Cc1ccc(O)cc1)NC(=O)[C@H](CCCCN)NC(=O)[C@H](CO)NC(=O)[C@H](Cc1ccc(O)cc1)NC(=O)[C@H](CC(=O)O)NC(=O)[C@H](CO)NC(=O)[C@@H](NC(=O)[C@H](Cc1ccccc1)NC(=O)[C@@H](NC(=O)CNC(=O)[C@H](CCC(N)=O)NC(=O)C(C)(C)NC(=O)[C@@H](N)Cc1ccc(O)cc1)[C@@H](C)O)[C@@H](C)O)C(C)C)C(=O)N[C@@H](CCCNC(=N)N)C(=O)N[C@@H](C)C(N)=O [Compound 3] (HELM PEPTIDE1{Y.[Aib].Q.G.T.F.T.S.D.Y.S.K.Y.L.D.S.K.A.A.H.D.F.V.E.W.L.L.R.A.[am]}$$$$V2.0),EC50,human GLP-1 R; Table 2,0.015 nM
same,EC50,human GLP-1 R; [1],0.022 nM
same,EC50,human GIP R; [2],0.13 nM
same,EC50,human GIP R; [3],0.015 nM
same,EC50,human GCG R,0.022 nM
CC[C@H](C)[C@H](NC(=O)[C@H](CO)NC(=O)[C@H](Cc1ccc(O)cc1)NC(=O)[C@H](CC(=O)O)NC(=O)[C@H](CO)NC(=O)[C@@H](NC(=O)[C@H](Cc1ccccc1)NC(=O)[C@@H](NC(=O)CNC(=O)[C@H](CCC(N)=O)NC(=O)C(C)(C)NC(=O)[C@@H](N)Cc1ccc(O)cc1)[C@@H](C)O)[C@@H](C)O)C(=O)N[C@@H](Cc1ccc(O)cc1)C(=O)N[C@@H](CC(C)C)C(=O)N[C@@H](CC(=O)O)C(=O)N[C@@H](CO)C(=O)N[C@@H](CCCCN)C(=O)N[C@@H](C)C(=O)N[C@@H](C)C(=O)N[C@@H](CCCCN)C(=O)N[C@@H](CC(=O)O)C(=O)N[C@@H](Cc1ccccc1)C(=O)N[C@H](C(=O)N[C@@H](CCC(=O)O)C(=O)N[C@@H](Cc1c[nH]c2ccccc12)C(=O)N[C@@H](CC(C)C)C(=O)N[C@@H](CC(C)C)C(=O)N[C@@H](CO)C(=O)N[C@@H](C)C(N)=O)C(C)C [Compound 10] (HELM PEPTIDE1{Y.[Aib].Q.G.T.F.T.S.D.Y.S.I.Y.L.D.S.K.A.A.K.D.F.V.E.W.L.L.S.A.[am]}$$$$V2.0),EC50,human GLP-1 R; Table 2,0.012 nM
same,EC50,human GLP-1 R; [1],0.1 nM
same,EC50,human GIP R; [2],0.24 nM
same,EC50,human GIP R; [3],0.012 nM
same,EC50,human GCG R,0.1 nM
CC(C)C[C@H](NC(=O)[C@H](CC(C)C)NC(=O)[C@H](Cc1c[nH]c2ccccc12)NC(=O)[C@H](CCC(=O)O)NC(=O)[C@@H](NC(=O)[C@H](Cc1ccccc1)NC(=O)[C@H](CC(=O)O)NC(=O)[C@H](Cc1c[nH]cn1)NC(=O)[C@H](C)NC(=O)[C@H](C)NC(=O)[C@H](CCCCN)NC(=O)[C@H](CO)NC(=O)[C@H](CCC(=O)O)NC(=O)[C@H](CC(C)C)NC(=O)[C@H](Cc1ccc(O)cc1)NC(=O)[C@H](CCCCN)NC(=O)[C@H](CO)NC(=O)[C@H](Cc1ccc(O)cc1)NC(=O)[C@H](CC(=O)O)NC(=O)[C@H](CO)NC(=O)[C@@H](NC(=O)[C@H](Cc1ccccc1)NC(=O)[C@@H](NC(=O)CNC(=O)[C@H](CCC(N)=O)NC(=O)C(C)(C)NC(=O)[C@@H](N)Cc1ccc(O)cc1)[C@@H](C)O)[C@@H](C)O)C(C)C)C(=O)N[C@@H](CO)C(=O)N[C@@H](C)C(N)=O [Compound 8] (HELM PEPTIDE1{Y.[Aib].Q.G.T.F.T.S.D.Y.S.K.Y.L.E.S.K.A.A.H.D.F.V.E.W.L.L.S.A.[am]}$$$$V2.0),EC50,human GLP-1 R; Table 2,0.015 nM
same,EC50,human GIP R; [2],0.2 nM
same,EC50,human GIP R; [3],0.015 nM
same,EC50,human GCG R,0.042 nM
CCCCCCCCCCCCCCCCCC(=O)N[C@@H](CCC(=O)NCCOCCOCC(=O)NCCOCCOCC(=O)NCCCC[C@H](NC(=O)[C@H](CCCCN)NC(=O)[C@H](CCC(=O)O)NC(=O)[C@H](CC(C)C)NC(=O)[C@H](Cc1ccc(O)cc1)NC(=O)[C@@H](NC(=O)[C@H](CO)NC(=O)[C@H](Cc1ccc(O)cc1)NC(=O)[C@H](CC(=O)O)NC(=O)[C@H](CO)NC(=O)[C@@H](NC(=O)[C@H](Cc1ccccc1)NC(=O)[C@@H](NC(=O)CNC(=O)[C@H](CCC(N)=O)NC(=O)C(C)(C)NC(=O)[C@@H](N)Cc1ccc(O)cc1)[C@@H](C)O)[C@@H](C)O)[C@@H](C)CC)C(=O)N[C@@H](C)C(=O)N[C@@H](C)C(=O)N[C@@H](CCCCN)C(=O)N[C@@H](CCC(=O)O)C(=O)N[C@@H](Cc1ccccc1)C(=O)N[C@H](C(=O)N[C@@H](CCC(=O)O)C(=O)N[C@@H](Cc1c[nH]c2ccccc12)C(=O)N[C@@H](CC(C)C)C(=O)N[C@@H](CC(C)C)C(=O)N[C@@H](CO)C(=O)N[C@@H](C)C(=O)NCC(=O)N1CCC[C@H]1C(=O)N[C@@H](CO)C(=O)N[C@@H](CO)C(=O)NCC(=O)N[C@@H](C)C(=O)N1CCC[C@H]1C(=O)N1CCC[C@H]1C(=O)N1CCC[C@H]1C(=O)N[C@@H](CO)C(N)=O)C(C)C)C(=O)O [Compound 37] (H-Y[Aib]QGTFTSDYSIYLEKK([AEEA-AEEA-γGlu-Stearoyl])AAKEFVEWLLSAGPSSGAPPPS-NH2),EC50,"human GIP R; Table 2b (most comprehensive data), average EC50, cAMP, read-out: GIP R (EC50 in nM)",0.018 nM
same,EC50,"human GCG R; Table 2b (most comprehensive data), average EC50, cAMP, HEK293 cells expressing human GCG R, read-out: GCG R (EC50 in nM)",0.014 nM

# From US10131702B2, “Glucagon-GLP-1-GIP triple agonist compounds” (priority 2013, dated 2018)
